Test results as given in BigSolDB 2.1.

C[C@@H]1CC[C@@]2(OC1)O[C@H]1C[C@H]3[C@@H]4CC=C5C[C@@H](O)CC[C@]5(C)[C@H]4CC[C@]3(C)[C@H]1[C@@H]2C
Details | solubility (mole fraction)
in acetone, 295.15 K | 0.000904
in acetone, 302.15 K | 0.00115
in acetone, 304.65 K | 0.00127
in acetone, 308.15 K | 0.0014
in acetone, 310.15 K | 0.00149
in acetone, 312.15 K | 0.00159
in acetone, 313.65 K | 0.0017
in acetone, 315.65 K | 0.00184
in acetone, 317.15 K | 0.00194
in acetone, 319.15 K | 0.00204
in acetone, 321.15 K | 0.00217
in acetone, 322.65 K | 0.0023
in acetone, 324.65 K | 0.00243
in acetone, 326.65 K | 0.00256
in acetone, 327.65 K | 0.00267
in acetone, 329.15 K | 0.00279
in acetone, 330.15 K | 0.00292
in acetone, 332.15 K | 0.00303
in ethanol, 299.15 K | 0.00133
in ethanol, 303.15 K | 0.00144
in ethanol, 306.15 K | 0.00153
in ethanol, 308.65 K | 0.00161
in ethanol, 311.65 K | 0.00169
in ethanol, 313.65 K | 0.00175
in ethanol, 315.65 K | 0.00184
in ethanol, 317.15 K | 0.00193
in ethanol, 319.15 K | 0.002
in ethanol, 320.65 K | 0.00208
in ethanol, 322.65 K | 0.00215
in ethanol, 324.15 K | 0.00224
in ethanol, 326.15 K | 0.00233
in ethanol, 327.65 K | 0.00241
in ethanol, 328.65 K | 0.00249
in ethanol, 329.65 K | 0.00258
in ethanol, 330.65 K | 0.00268
in ethanol, 331.65 K | 0.00276
in ethanol, 332.65 K | 0.00284
in ethyl acetate, 300.65 K | 0.0024
in ethyl acetate, 302.15 K | 0.00258
in ethyl acetate, 303.15 K | 0.00276
in ethyl acetate, 303.65 K | 0.00294
in ethyl acetate, 305.15 K | 0.00317
in ethyl acetate, 307.15 K | 0.00338
in ethyl acetate, 308.65 K | 0.0036
in ethyl acetate, 310.65 K | 0.00383
in ethyl acetate, 311.65 K | 0.00402
in ethyl acetate, 313.65 K | 0.00423
in ethyl acetate, 315.65 K | 0.00447
in ethyl acetate, 316.65 K | 0.00466
in ethyl acetate, 318.15 K | 0.00492
in ethyl acetate, 320.15 K | 0.00523
in ethyl acetate, 321.65 K | 0.00545
in ethyl acetate, 323.15 K | 0.00577
in ethyl acetate, 324.65 K | 0.00602
in ethyl acetate, 326.65 K | 0.00628
in ethyl acetate, 327.65 K | 0.0065
in ethyl acetate, 328.95 K | 0.00673
in isopropanol, 293.15 K | 0.000835
in isopropanol, 296.65 K | 0.000975
in isopropanol, 300.65 K | 0.00111
in isopropanol, 303.15 K | 0.00123
in isopropanol, 304.65 K | 0.00134
in isopropanol, 306.65 K | 0.00145
in isopropanol, 308.65 K | 0.00157
in isopropanol, 311.15 K | 0.00167
in isopropanol, 314.65 K | 0.00178
in isopropanol, 317.15 K | 0.00192
in isopropanol, 319.15 K | 0.00203
in isopropanol, 321.15 K | 0.00216
in isopropanol, 324.65 K | 0.0023
in isopropanol, 326.15 K | 0.00241
in isopropanol, 328.15 K | 0.00253
in isopropanol, 330.15 K | 0.00267
in isopropanol, 332.15 K | 0.00282
in methanol, 291.15 K | 0.000187
in methanol, 298.15 K | 0.000257
in methanol, 300.15 K | 0.000325
in methanol, 308.15 K | 0.000401
in methanol, 312.65 K | 0.000469
in methanol, 315.15 K | 0.00051
in methanol, 317.65 K | 0.000556
in methanol, 319.65 K | 0.0006
in methanol, 322.15 K | 0.000643
in methanol, 323.65 K | 0.000694
in methanol, 325.65 K | 0.000743
in methanol, 327.15 K | 0.000795
in methanol, 328.15 K | 0.000847
in methanol, 329.15 K | 0.00091
in methanol, 331.65 K | 0.000994
in n-propyl acetate, 296.15 K | 0.0021
in n-propyl acetate, 300.15 K | 0.00263
in n-propyl acetate, 306.65 K | 0.00313
in n-propyl acetate, 307.15 K | 0.00321
in n-propyl acetate, 310.15 K | 0.00356
in n-propyl acetate, 314.65 K | 0.00402
in n-propyl acetate, 317.65 K | 0.00442
in n-propyl acetate, 319.65 K | 0.0047
in n-propyl acetate, 322.15 K | 0.00495
in n-propyl acetate, 323.65 K | 0.0053
in n-propyl acetate, 325.15 K | 0.00543
in n-propyl acetate, 327.15 K | 0.00575
in n-propyl acetate, 328.65 K | 0.00616
in n-propyl acetate, 329.15 K | 0.00612
